Experimental data as given in patent US9981037B2, “Combination therapy of beta-glycolipids and antibodies for the treatment of immune-related disorders” (HADASIT MEDICAL RESEARCH SERVICES AND DEVELOPMENT LTD., priority 2008, dated 2018).

Tests used:
[1] = system: healthy human volunteers; assay: Clinical and laboratory follow-up, CD3+ counts and HAMA in healthy human volunteers; type: in vivo; conditions: oral
Protocol: * OKT3 (Orthoclone OKT-3) was purchased from Ortho Biotech Inc. (New Jersey, USA). Antibodies to OKT3 were evaluated on day 30 using the Human Anti-Mouse Antibodies (HAMA)-ELISA kit (MEDAC, Hamburg, Germany).
Healthy males (≥18 years) not on therapy for medical or other illnesses were enrolled in accordance with the guidelines of the Hebrew University-Hadassah Institutional Committee for Human Clinical Trials, and the approval of the Israel Ministry of Health Committee for Human Trials. Of 35 potential study subjects screened 18 met inclusion and exclusion criteria and were randomized to one of the treatment groups.
Nine subjects (3/group) were orally administered 0.2 mg, 1.0 mg or 5.0 mg of OKT3 daily for 5 days and immune parameters measured on days 5, 10 and 30 days (FIG. 12). Six subjects (3/group) received 7.5 mg of beta glucosylceramide in combination with 0.2 mg or 1.0 mg of OKT3 and 3 subjects received GC alone. All subjects were treated with 20 mg of Omeprazole (a proton pump inhibitor) during the 5 days of dosing. […]
All patients underwent a full medical history and physical examination, including review of adverse effects on days 1, 5, 10, and 30, along with complete blood counts, differential, electrolytes, liver and kidney function tests, and lipid profile. C-reactive protein and sedimentation rates were also evaluated. […]

[2] = system: Peripheral blood lymphocytes; assay: Proliferation of peripheral blood lymphocytes stimulated in vitro with anti-CD3 antibody; type: in vivo, human
Protocol: Nine subjects (3/group) were orally administered 0.2 mg, 1.0 mg or 5.0 mg of OKT3 daily for 5 days and immune parameters measured on days 5, 10 and 30 days (FIG. 12). Six subjects (3/group) received 7.5 mg of beta glucosylceramide in combination with 0.2 mg or 1.0 mg of OKT3 and 3 subjects received GC alone. All subjects were treated with 20 mg of Omeprazole (a proton pump inhibitor) during the 5 days of dosing. Dosing occurred in the morning before breakfast at the study site following a 8 hours fast. PBMCs were isolated from blood samples using Ficol Hypaque solution. To measure proliferation, 2×10^5 cells per well were cultured in triplicate in RPMI 1640 medium with 5% FBS (Biological Industries, Israel), 100 units/ml penicillin, 100 µg/ml streptomycin, 1% Glutamine, 1% non essential […], 1% sodium pyruvate and β-mercapto-ethanol (Biological Industries, Israel). Cells were stimulated with pre-coated antibodies (in 200 μl PBS/well):μg/well of anti OKT-3 mAb (Ortho Biotech Inc, New Jersey, USA) or 5 μg/ml soluble anti-CD3 mAb (eBioscience, CA, USA) or 2.5 μg/ml anti-CD28 mAb (R&D systems, MN, USA). One set of the above wells were added nothing while 10 μg of GC was added to a similar set for 72 h in culture at 37° C. with 5% CO2. Supernatants were collected for IL-13, IL-17 and IFN-γ. Enzyme-linked immunosorbent assays for these cytokines were performed according to the manufacturer's protocol (R&D Systems, Minneapolis, Minn.). For TGF-β, 2×10^5 cells per well were cultured in serum free media (Biotarget, Biological Industries, Israel). After collecting the supernatants, 1 µCi [^3H]thymidine (Amersham Biosciences, UK) was added to each well, and cells were harvested 18 h later. Proliferation was measured by scintillation counting. Unlike what has been reported for treatment with IV anti-CD3 (which is also given at a dose of 5 mg per day for five days), no decrease in the CD3+ lymphocyte counts or modulation of CD3 from the T cell surface was observed. […] An identical pattern was observed when results were calculated as stimulation indices.

[3] = system: PBL cells; assay: Cytokine secretion profile of PBL cells stimulated with anti-CD3; type: in vivo, human
Protocol: Nine subjects (3/group) were orally administered 0.2 mg, 1.0 mg or 5.0 mg of OKT3 daily for 5 days and immune parameters measured on days 5, 10 and 30 days (FIG. 12). Six subjects (3/group) received 7.5 mg of beta glucosylceramide in combination with 0.2 mg or 1.0 mg of OKT3 and 3 subjects received GC alone. All subjects were treated with 20 mg of Omeprazole (a proton pump inhibitor) during the 5 days of dosing. Dosing occurred in the morning before breakfast at the study site following a 8 hours fast.
PBMCs were isolated from blood samples using Ficol Hypaque solution. To measure proliferation, 2×10^5 cells per well were cultured in triplicate in RPMI 1640 medium with 5% FBS (Biological Industries, Israel), 100 units/ml penicillin, 100 µg/ml streptomycin, 1% Glutamine, 1% non essential […], 1% sodium pyruvate and β-mercapto-ethanol (Biological Industries, Israel). Cells were stimulated with pre-coated antibodies (in 200 μl PBS/well):μg/well of anti OKT-3 mAb (Ortho Biotech Inc, New Jersey, USA) or 5 μg/ml soluble anti-CD3 mAb (eBioscience, CA, USA) or 2.5 μg/ml anti-CD28 mAb (R&D systems, MN, USA). One set of the above wells were added nothing while 10 μg of GC was added to a similar set for 72 h in culture at 37° C. with 5% CO2. Supernatants were collected for IL-13, IL-17 and IFN-γ. Enzyme-linked immunosorbent assays for these cytokines were performed according to the manufacturer's protocol (R&D Systems, Minneapolis, Minn.). For TGF-β, 2×10^5 cells per well were cultured in serum free media (Biotarget, Biological Industries, Israel). After collecting the supernatants, 1 µCi [^3H]thymidine (Amersham Biosciences, UK) was added to each well, and cells were harvested 18 h later. Proliferation was measured by scintillation counting.
To investigate the effect of oral OKT3 on the cytokine secretion profile of T cells, PBL cells were stimulated with 5 μg anti-CD3 and the secretion of IFN-γ, IL-17, TGF-β and IL-13 was measured.

With “OKT3: murine monoclonal anti-CD3 antibody (Orthoclone OKT-3, Ortho Biotech)” the “CD3+ lymphocyte counts or modulation of CD3 from the T cell surface” value [1] was “no decrease”, the “anti-OKT3 (HAMA) antibodies” value ([1]; day 30) was “no subject developed” and the “subjects with increase in proliferation that peaked at day five” value (shortened to “subjects with increase … at day five”) ([2]; 0.2 mg oral) was “one subject”. The “subjects with increase … at day five” value ([2]; 1.0 mg oral daily for 5 days, three subjects) was “all three subjects”, the “subjects with increase … at day five” value ([2]; 5 mg oral) was “two subjects” and the cytokine secretion findings ([3]; 0.2 mg and 5.0 mg oral, not shown) was “similar, though not as consistent findings”. The “subjects with decrease in IFN-γ” value ([3]; 1.0 mg oral) was “three subjects”, the “subjects with decrease of IL-17” value ([3]; 1.0 mg oral) was “two out of three subjects” and the “subjects with increase of TGF-β” value ([3]; 1.0 mg oral) was “two out of three subjects”. The “subjects with increase of IL-13” value ([3]; 1.0 mg oral, not shown) was “three out of three subjects”.
